Read-outs that look alike come from different tables or passages of the source.

In one data set the test system is FRDA lymphocytes. Description: Suppression of lipid peroxidation (C11-BODIPY581/591, FACS) in FRDA lymphocytes treated with diethyl maleate. The format is cell-based. The note with it: Lymphocyte, DEM, read-out: Scavenging activity (%), suppression of lipid peroxidation. An excerpt:
Several methods for assaying lipid peroxidation in vitro have been developed (Kuypers et al. (1987) Biochim Biophys Acta. 25, 266-274; Pap et al. (1999) FEBS Lett. 453, 278-282; Drummen et al. (2002) Free RadicBiol Med. 33, 473-490). Almost all of these methods are based on inhibition of free radical-induced oxidation reactions. A widely used fluorescence assay for lipid peroxidation uses lipid soluble cis-parinaric acid as a probe. cis-parinaric acid loses its fluorescence (λexc/em: 320/432 nm) upon interaction with peroxyl radicals and retains its fluorescence in the presence of radical quenchers. cis-parinaric acid is, however, air sensitive, photolabile and absorbs light in the UV region of the spectrum (at ˜320 nm). […] In practical terms, the results obtained using cis-parinaric as a probe for lipid peroxidation are confounded due to the overlapping of the compounds emission spectra with the cis-parinaric emission spectrum. C11-BODIPY^581/591 Oxidation to Measure Lipid Peroxidation To overcome the problem of spectral overlap using cis-parinaric acid, a fluorescence assay for lipid peroxidation using a lipophilic probe belonging to the BODIPY class of fluorescent dyes was used C11-BODIPY^581/591 (4,4-difluoro-5(4-phenyl-1,3-butadienyl)-4-bora-3a, 4a-diaza-s-indacene-3-propionic acid) fluorescent shifts from red to green upon oxidation. C11-BODIPY^581/591 (Molecular Probes, Eugene, Oreg., USA) stock solution concentrations were determined by measuring the absorption of C11-BODIPY^581/591 at 582 nm using a molar extinction coefficient of 140,000 mol^−1 cm^−1 (R. P. Haugland, (1999) Handbook of Fluorescent Probes and Research Chemicals, Molecular Probes, Inc., Eugene, Oreg.). The lipid peroxidation inducer 2,2′-Azobis (2-amidino-propane dihydrochloride) (AAPH) and the antioxidant compound α-tocopherol (α-TOH) were obtained from Sigma (St. Louis, Mo., USA). Phospholipid bilayers were prepared from 1-stearoyl-2-oleoyl-phosphatidylcholine (SOPC) and 1,2-dilinoleoyl-phosphatidylcholine (DLPC) and were purchased from Avanti® polar lipids, Inc., (Alabaster, Ala., USA). Preparation of Liposomes Phosphotidylcholine (PC) liposomes were prepared as described before (Guey-Shuang et al. (1982) Lipids. 17, 403-413). Briefly, DLPC (25 mg) were dissolved in chloroform and the solvent was removed by nitrogen evaporation (˜2 hours) to give a thin film of PC in a round bottom flask. The lipid film was hydrated with 50 mL of 10 mM Tris-HCl (pH 7.4), 100 mM KCl, shaken and sonicated for 15 seconds. The liposomes obtained were filtered several times through […] membrane filter. Measurement of C11-BODIPY^581/591 Oxidation C11-BODIPY^581/591 was incorporated into liposomes and oxidized by peroxyl radicals derived from the decomposition of AAPH in the presence and absence of compounds. Liposomes (1 mg/mL), suspended in 10 mM Tris-HCl (pH 7.4), 100 mM KCl, were transferred to a quartz 1 mL cuvette and placed in a Varian Cary Eclipse fluorometer (Varian, Cary, N.C.) equipped with a thermostatted cuvette holder at 40° C. Liposomes were pre-incubated for 10 min with 200 nM C11-BODIPY^581/591 to allow their incorporation into the lipid phase of the liposomes. After the addition of AAPH (10 mM) the decay of the red fluorescence was followed at λ exc=570 nm, λ em=600 nm. Relative fluorescence units were normalized to 100% intensity. Results obtained were verified by repeating experiments N=3 independent experiments. Measurement of C11-BODIPY^581/591 Oxidation in Cell Culture A quantitative FACS analysis of lipid peroxidation of FRDA lymphocytes, which had been treated with diethyl maleate following incubation in the presence and absence of the test compounds, was measured as described (Khdour et al. (2011) Pharmaceut. Res. 28, 2896-2909). Briefly, FRDA lymphocytes (5×10^5 cell/mL) were treated with the test compounds at final concentrations of 5 and 10 μM and incubated at 37° C. for 16 h in a humidified atmosphere containing 5% CO2 in air. […]

Data set [1] has as its system Friedreich's ataxia lymphoblast cell line GM15850. Description: Cytoprotection (trypan blue exclusion assay) of DEM-treated FRDA lymphocytes. Particulars: for viability at 5 µM / viability at 0.1 µM / viability at 0.5 µM / viability at 2.5 µM: Homo sapiens, GM15850, DEM alone 18 ± 10% viability, read-out: Cytoprotection (cell viability, % of untreated control). The format is cell-based. How it is done:
Cell viability was determined by trypan blue exclusion assay in Friedreich's ataxia lymphoblast cell line GM15850 (Coriell Institute, New Jersey). This technique was used to assess the cytoprotective effects of the tested compounds in cultured cells treated with DEM to induce cell death by GSH depletion. The viability of DEM-treated FRDA cells was determined by their ability to exclude the dye trypan blue. Viable cells exclude trypan blue, whereas non-viable cells take up the dye and stain blue. Briefly, FRDA lymphocytes were grown in RPMI 1640 medium (Gibco) supplemented with 15% fetal calf serum, 2 mM glutamine (HyClone) and 1% penicillin-streptomycin mix (Cellgro). Cells were seeded at a density of 5×10^5 cells/mL and treated with different concentrations of the indicated compounds. Cells were incubated at 37° C. in a humidified atmosphere of 5% CO2 in air for 17 h. After pre-incubation, the cells were treated with 5 mM DEM. Cell viability was determined by staining cells with 0.4% trypan blue using a hemacytometer. At least 500 cells were counted in each experimental group. At the time of assay, <20% of DEM treated cells were viable (trypan blue negative), whereas in non DEM-treated control, >90% cells were viable. Cell viability was expressed as the percentage of control. Data are expressed as means±S.E.M. (n=3).
Cell viability was determined by trypan blue exclusion assay in Friedreich's ataxia lymphoblast cell line GM15850 (Coriell Institute). This technique was used to assess the cytoprotective effects of the compounds in cultured cells treated with diethyl maleate (DEM) to induce cell death by glutathione (GSH) depletion. The viability of DEM-treated FRDA cells was determined by their ability to exclude the dye trypan blue. Viable cells exclude trypan blue, whereas non-viable cells take up the dye and stain blue. […] Benzoquinone analogue 9 afforded greater cyoprotection to FRDA lymphocytes at 5 μM concentration than did the tert-butyl ester 6 (74 vs 50%).

Data set [2] concerns the target bovine heart mitochondrial complex I (Bos taurus, UniProt P03887+P17694+P42026). In words: Complex I (NADH-Q1 oxidoreductase) inhibition in submitochondrial particles. The format is biochemical.
In data set [3] the test system is NADH oxidase (complexes I, III and IV). In words: NADH oxidase activity (complexes I, III and IV) in submitochondrial particles. The format is biochemical, bovine.
Where [4] appears, read: submitochondrial particles, 30° C.; read-out: Complex I inhibition IC50.
Setting [5] is: submitochondrial particles, 30° C.; read-out: Complex I inhibition Imax.

Sequence of bovine heart mitochondrial complex I (P25708 21-464): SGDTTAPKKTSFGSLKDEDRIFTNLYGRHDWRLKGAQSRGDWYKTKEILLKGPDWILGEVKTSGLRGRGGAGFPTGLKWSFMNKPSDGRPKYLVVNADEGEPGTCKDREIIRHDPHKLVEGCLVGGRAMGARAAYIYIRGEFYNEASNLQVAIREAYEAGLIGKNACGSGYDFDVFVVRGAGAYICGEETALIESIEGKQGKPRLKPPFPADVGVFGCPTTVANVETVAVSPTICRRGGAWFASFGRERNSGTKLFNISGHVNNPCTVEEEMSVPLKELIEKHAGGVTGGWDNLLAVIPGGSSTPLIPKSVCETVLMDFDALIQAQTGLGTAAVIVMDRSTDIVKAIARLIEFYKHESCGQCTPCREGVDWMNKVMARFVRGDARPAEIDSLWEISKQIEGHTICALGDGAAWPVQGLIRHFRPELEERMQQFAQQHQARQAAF
Sequence of bovine heart mitochondrial complex I (P42026 38-216): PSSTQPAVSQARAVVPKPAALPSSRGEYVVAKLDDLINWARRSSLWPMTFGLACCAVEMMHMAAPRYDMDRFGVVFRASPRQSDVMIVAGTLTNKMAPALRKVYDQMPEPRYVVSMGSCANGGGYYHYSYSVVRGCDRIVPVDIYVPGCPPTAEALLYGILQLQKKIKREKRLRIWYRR
Sequence of bovine heart mitochondrial complex I (P17694 34-463): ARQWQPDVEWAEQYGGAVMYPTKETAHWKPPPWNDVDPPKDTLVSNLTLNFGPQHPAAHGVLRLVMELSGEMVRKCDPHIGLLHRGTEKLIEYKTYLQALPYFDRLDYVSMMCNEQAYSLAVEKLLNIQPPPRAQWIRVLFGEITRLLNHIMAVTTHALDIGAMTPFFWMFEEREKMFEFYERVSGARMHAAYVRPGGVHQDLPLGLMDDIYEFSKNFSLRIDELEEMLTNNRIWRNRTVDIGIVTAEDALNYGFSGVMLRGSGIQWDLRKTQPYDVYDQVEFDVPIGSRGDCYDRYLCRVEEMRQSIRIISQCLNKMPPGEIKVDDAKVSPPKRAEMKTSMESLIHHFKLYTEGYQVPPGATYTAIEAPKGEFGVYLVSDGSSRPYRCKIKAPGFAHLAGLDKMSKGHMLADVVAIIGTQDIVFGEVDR
Sequence of bovine heart mitochondrial complex I (P15690 24-727, further chain): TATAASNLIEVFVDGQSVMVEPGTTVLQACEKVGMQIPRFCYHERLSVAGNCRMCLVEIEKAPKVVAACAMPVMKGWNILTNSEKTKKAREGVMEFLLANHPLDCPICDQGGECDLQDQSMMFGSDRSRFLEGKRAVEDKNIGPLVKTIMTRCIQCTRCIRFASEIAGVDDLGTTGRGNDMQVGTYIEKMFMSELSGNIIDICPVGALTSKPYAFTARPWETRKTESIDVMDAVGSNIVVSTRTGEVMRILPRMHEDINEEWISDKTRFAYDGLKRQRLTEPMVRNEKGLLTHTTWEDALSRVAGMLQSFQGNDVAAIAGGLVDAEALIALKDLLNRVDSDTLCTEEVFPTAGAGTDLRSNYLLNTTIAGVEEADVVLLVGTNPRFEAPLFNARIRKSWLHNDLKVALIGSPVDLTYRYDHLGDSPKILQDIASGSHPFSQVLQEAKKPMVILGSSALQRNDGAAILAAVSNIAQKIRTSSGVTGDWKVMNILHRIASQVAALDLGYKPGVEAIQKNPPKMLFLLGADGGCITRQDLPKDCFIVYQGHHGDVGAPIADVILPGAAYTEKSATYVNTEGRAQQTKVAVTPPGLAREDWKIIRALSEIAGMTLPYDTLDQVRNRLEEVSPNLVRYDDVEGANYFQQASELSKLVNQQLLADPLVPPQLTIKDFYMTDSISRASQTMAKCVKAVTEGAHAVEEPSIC
Sequence of bovine heart mitochondrial complex I (P03887 whole entry): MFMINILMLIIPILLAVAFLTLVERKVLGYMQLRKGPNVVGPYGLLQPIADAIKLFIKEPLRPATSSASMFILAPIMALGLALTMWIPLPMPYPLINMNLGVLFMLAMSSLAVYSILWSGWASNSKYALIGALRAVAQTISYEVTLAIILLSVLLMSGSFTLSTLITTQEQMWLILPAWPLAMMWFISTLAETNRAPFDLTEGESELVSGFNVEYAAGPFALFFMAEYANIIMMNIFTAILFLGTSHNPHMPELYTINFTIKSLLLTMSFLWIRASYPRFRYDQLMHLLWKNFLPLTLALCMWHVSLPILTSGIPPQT
Sequence of bovine heart mitochondrial complex I (P42028 37-212, further chain): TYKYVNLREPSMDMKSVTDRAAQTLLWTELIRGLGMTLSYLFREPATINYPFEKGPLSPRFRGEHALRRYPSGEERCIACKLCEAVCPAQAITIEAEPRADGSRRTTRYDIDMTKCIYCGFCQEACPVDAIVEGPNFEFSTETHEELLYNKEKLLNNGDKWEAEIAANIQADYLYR

`C=CCCCCCCCCCC1=C(OC)C(=O)C=C(OC)C1=O`: the melting point lay in the range of 30 to 31 °C.
In turn, `C=CCCCCCCCCCC1=C(O)C(=O)C=C(OC)C1=O` registered a melting point of 89 to 90 °C.
For the compound `CCCCCCCCCCCCCC1=C(O)C(=O)C=C(NCCCC(=O)OC(C)(C)C)C1=O` [Compound 6, tert-butyl 4-(4-hydroxy-3,6-dioxo-5-tridecylcyclohexa-1,4-dienylamino)butanoate], the melting point was 96 to 97 °C. For the same compound, in the data set on FRDA lymphocytes, the inhibition at 5 µM came out at 26 ± 6.7% and the inhibition at 10 µM worked out at 37 ± 1.4%. Moreover, the viability at 5 µM in data set [1] (5 μM) came to 50%. Further, in data set [2] (setting [4]), the IC50 turned out to be 10 ± 0.6 µM. Also, the Emax in data set [2] (setting [5]) is 64 ± 13%.
`CCCCCCCCCCCCCC1=C(O)C(=O)C=C(NCCCC(=O)O)C1=O` [Compound 8, 4-(4-hydroxy-3,6-dioxo-5-tridecylcyclohexa-1,4-dienylamino)butanoic Acid]: in the data set on FRDA lymphocytes, the inhibition at 5 µM stood at 8 ± 6.6%. In addition, the inhibition at 10 µM in the data set on FRDA lymphocytes was 24%. Further, the “Cytoprotection (in words)” value in data set [1] (5 μM, compared with 6 and 9) is “least protection”. Further, the viability at 5 µM in data set [1] (5 μM) is 36 ± 7.3%. For the same compound, the concentration for half-maximal inhibition (IC50) in data set [2] (setting [4]) stood at 2 ± 0.1 µM. Also, the Emax in data set [2] (setting [5]) is 84 ± 1.3%. In addition, the “NADH oxidase activity (Complex I, III, IV) %” value in data set [3] (1 μM) came to 77 ± 4.0%; in data set [3] (5 μM), 62 ± 3.0%.
In the case of `CCCCCCCCCCCCCC1=C(O)C(=O)C=C(NCCCCCC)C1=O` [Compound 19, 5-(hexylamino)-2-hydroxy-3-tridecylcyclohexa-2,5-diene-1,4-dione], the melting point was 70 °C (dec.). In the data set with FRDA lymphocytes, the inhibition at 1 µM amounted to 2 ± 0.3%, the inhibition at 5 µM stood at 27 ± 4.5% and the inhibition at 10 µM stood at 38%. In addition, in data set [1], the viability at 0.1 µM was 18 ± 2.1%, the viability at 0.5 µM turned out to be 22 ± 2.6% and the viability at 2.5 µM stood at 43 ± 4.4%. Also, the viability at 5 µM in data set [1] (5 μM) came to 65 ± 5.2%. The concentration for half-maximal inhibition (IC50) in data set [2] (read-out: Complex I inhibition IC50; submitochondrial particles, 30° C.) was determined as 20 ± 1.7 µM. Further, the Emax in data set [2] (read-out: Complex I inhibition Imax) came to 77 ± 6.2%. The “NADH oxidase activity (Complex I, III, IV) %” value in data set [3] (1 μM) was found to be 67 ± 6.0%. Further, the “NADH oxidase activity (Complex I, III, IV) %” value in data set [3] (5 μM) is 39 ± 1.0%.
Take `CCCCCCCCCCCCCC1=C(OC)C(=O)C=C(NCCCCCC)C1=O` [Compound 20, 5-(hexylamino)-2-methoxy-3-tridecylcyclohexa-2,5-diene-1,4-dione]: the melting point was 110 °C (dec.). Also, in the data set with FRDA lymphocytes, the inhibition at 1 µM was 14 ± 1.3%, the inhibition at 5 µM stood at 61 ± 7.5% and the inhibition at 10 µM came to 70%. In data set [1], the viability at 0.1 µM turned out to be 20 ± 3.2%, the viability at 0.5 µM is 50 ± 5.2% and the viability at 2.5 µM came out at 66 ± 6.3%. Besides, the viability at 5 µM in data set [1] (5 μM) worked out at 80 ± 4%. In addition, the IC50 in data set [2] (setting [4]) stood at 482 ± 24 µM. Further, in data set [2] (setting [5]), the Emax was more than 85%. In addition, the “NADH oxidase activity (Complex I, III, IV) %” value in data set [3] (1 μM) was found to be 74 ± 16%. Also, the “NADH oxidase activity (Complex I, III, IV) %” value in data set [3] (5 μM) was 47 ± 3.0%.
Turning to `C=CCCCCCCCCCc1c(OC)c(OC)cc(OC)c1OC` [Compound 34, 1,2,4,5-tetramethoxy-3-(undec-10-enyl)benzene], the melting point lay in the range of 33 to 34 °C.
`C=CCCCCCCCCCC1=C(O)C(=O)C=C(NCCCCC=C)C1=O` [Compound 37, 5-(hex-5-enylamino)-2-hydroxy-3-(undec-10-enyl)cyclohexa-2,5-diene-1,4-dione] returned a melting point of 77 to 78 °C.
`C=CCCCCCCCCCC1=C(OC)C(=O)C=C(NCCCCC=C)C1=O` [Compound 38, 5-(hex-5-enylamino)-2-methoxy-3-(undec-10-enyl)cyclohexa-2,5-diene-1,4-dione] had a melting point of 45 to 46 °C.
`COC1=C2CCCCCCCCCC=CCCCCNC(=CC1=O)C2=O` [Compound 39] registered a melting point of 82 to 84 °C.

(Values after patent US9957214B2, “Multifunctional radical quenchers” (ARIZONA BOARD OF REGENTS ON BEHALF OF ARIZONA STATE …, priority 2012, dated 2018).)
